Experimental data taken from ChEMBL document CHEMBL1140570, “Synthesis and antimicrobial evaluation of guanylsulfonamides” (2007).
Converted amounts (≈) assume the structure as drawn. The source made the active and inactive calls. The calls are words filed in the database; no cut-off is given here.

Assays:
Aspergillus flavus [1] = assay: Antifungal activity against Aspergillus flavus NCIM 539 by serial dilution method; format: functional
Bacillus subtilis [2] = assay: Antibacterial activity against Bacillus subtilis ATCC 6033 by serial dilution method; format: functional
Aspergillus niger [3] = assay: Antifungal activity against Aspergillus niger NCIM 590 by serial dilution method; format: functional
Pseudomonas aeruginosa = assay: Antibacterial activity against Pseudomonas aeruginosa ATCC 27853 by serial dilution method; format: functional
Escherichia coli [4] = assay: Antibacterial activity against Escherichia coli ATCC 25922 by serial dilution method; format: functional
Candida albicans [5] = assay: Antifungal activity against Candida albicans NCIM C27 by serial dilution method; format: functional
Enterococcus faecalis = assay: Antibacterial activity against Streptococcus faecalis ATCC 29212 by serial dilution method; format: functional
Staphylococcus aureus = assay: Antibacterial activity against Staphylococcus aureus ATCC 25923 by serial dilution method; format: functional
Klebsiella pneumoniae [6] = assay: Antibacterial activity against Klebsiella pneumoniae ATCC 13883 by serial dilution method; format: functional
Aspergillus niger [7] = assay: Antifungal activity against Aspergillus niger NCIM 590 at 64 ug/mL by serial dilution method; format: functional, organism-based
Aspergillus flavus [8] = assay: Antifungal activity against Aspergillus flavus NCIM 539 at 64 ug/mL by serial dilution method; format: functional, organism-based
Candida albicans [9] = assay: Antifungal activity against Candida albicans NCIM C27 at 64 ug/mL by serial dilution method; format: functional, organism-based
Escherichia coli [10] = assay: Antibacterial activity against Escherichia coli ATCC 25922 at 64 ug/mL by serial dilution method; format: functional, organism-based
Klebsiella pneumoniae [11] = assay: Antibacterial activity against Klebsiella pneumoniae ATCC 13883 at 64 ug/mL by serial dilution method; format: functional, organism-based
Bacillus subtilis [12] = assay: Antibacterial activity against Bacillus subtilis ATCC 6033 at 64 ug/mL by serial dilution method; format: functional, organism-based

CC1CCN(S(=O)(=O)c2ccc(-n3cnc4c(=O)[nH]c(N)nc43)c(F)c2)CC1
MIC (Aspergillus flavus [1]): 64 µg/mL (≈ 157 µM) | MIC (Bacillus subtilis [2]): 64 µg/mL (≈ 157 µM) | MIC (Aspergillus niger [3]): 32 µg/mL (≈ 78.7 µM) | MIC (Pseudomonas aeruginosa): 64 µg/mL (≈ 157 µM) | MIC (Escherichia coli [4]): 32 µg/mL (≈ 78.7 µM) | MIC (Candida albicans [5]): 64 µg/mL (≈ 157 µM) | MIC (Enterococcus faecalis): 32 µg/mL (≈ 78.7 µM) | MIC (Staphylococcus aureus): 32 µg/mL (≈ 78.7 µM) | MIC (Klebsiella pneumoniae [6]): 32 µg/mL (≈ 78.7 µM)

Nc1nc2c(ncn2-c2ccc(S(=O)(=O)N3CCCCC3)cc2F)c(=O)[nH]1
MIC (Bacillus subtilis [2]): 32 µg/mL (≈ 81.5 µM) | MIC (Pseudomonas aeruginosa): 64 µg/mL (≈ 163 µM) | MIC (Escherichia coli [4]): 64 µg/mL (≈ 163 µM) | Activity (Aspergillus niger [7]): inactive | MIC (Enterococcus faecalis): 16 µg/mL (≈ 40.8 µM) | Activity (Aspergillus flavus [8]): inactive | MIC (Staphylococcus aureus): 32 µg/mL (≈ 81.5 µM) | Activity (Candida albicans [9]): inactive | MIC (Klebsiella pneumoniae [6]): 32 µg/mL (≈ 81.5 µM)

CC1CCN(S(=O)(=O)c2ccc(-n3cnc4c(=O)[nH]c(N)nc43)cc2)CC1
Activity (Escherichia coli [10]): inactive | MIC (Bacillus subtilis [2]): 64 µg/mL (≈ 165 µM) | Activity (Klebsiella pneumoniae [11]): inactive | Activity (Bacillus subtilis [12]): inactive | MIC (Pseudomonas aeruginosa): 64 µg/mL (≈ 165 µM) | Activity (Aspergillus niger [7]): inactive | MIC (Enterococcus faecalis): 64 µg/mL (≈ 165 µM) | Activity (Aspergillus flavus [8]): inactive | MIC (Staphylococcus aureus): 64 µg/mL (≈ 165 µM) | Activity (Candida albicans [9]): inactive

Nc1nc2c(ncn2-c2ccc(S(=O)(=O)N3CCCCC3)cc2)c(=O)[nH]1
Activity (Escherichia coli [10]): inactive | Activity (Klebsiella pneumoniae [11]): inactive | Activity (Bacillus subtilis [12]): inactive | MIC (Pseudomonas aeruginosa): 64 µg/mL (≈ 171 µM) | Activity (Aspergillus niger [7]): inactive | MIC (Enterococcus faecalis): 64 µg/mL (≈ 171 µM) | Activity (Aspergillus flavus [8]): inactive | MIC (Staphylococcus aureus): 64 µg/mL (≈ 171 µM) | Activity (Candida albicans [9]): inactive

CC1CCN(S(=O)(=O)c2ccc(-n3cnc4c(=O)[nH]c(N)nc43)c(Cl)c2)CC1
MIC (Aspergillus flavus [1]): 32 µg/mL (≈ 75.7 µM) | MIC (Bacillus subtilis [2]): 32 µg/mL (≈ 75.7 µM) | MIC (Aspergillus niger [3]): 32 µg/mL (≈ 75.7 µM) | MIC (Pseudomonas aeruginosa): 16 µg/mL (≈ 37.8 µM) | MIC (Escherichia coli [4]): 16 µg/mL (≈ 37.8 µM) | MIC (Candida albicans [5]): 64 µg/mL (≈ 151 µM) | MIC (Enterococcus faecalis): 8 µg/mL (≈ 18.9 µM) | MIC (Staphylococcus aureus): 4 µg/mL (≈ 9.46 µM) | MIC (Klebsiella pneumoniae [6]): 16 µg/mL (≈ 37.8 µM)

COc1cc(S(=O)(=O)N2CCCCC2)ccc1-n1cnc2c(=O)[nH]c(N)nc21
MIC (Aspergillus flavus [1]): 16 µg/mL (≈ 39.6 µM) | MIC (Bacillus subtilis [2]): 16 µg/mL (≈ 39.6 µM) | MIC (Aspergillus niger [3]): 16 µg/mL (≈ 39.6 µM) | MIC (Pseudomonas aeruginosa): 64 µg/mL (≈ 158 µM) | MIC (Escherichia coli [4]): 32 µg/mL (≈ 79.1 µM) | MIC (Candida albicans [5]): 32 µg/mL (≈ 79.1 µM) | MIC (Enterococcus faecalis): 64 µg/mL (≈ 158 µM) | MIC (Staphylococcus aureus): 64 µg/mL (≈ 158 µM) | MIC (Klebsiella pneumoniae [6]): 32 µg/mL (≈ 79.1 µM)

CCn1cc(C(=O)O)c(=O)c2cc(F)c(N3CCNCC3)cc21 [NORFLOXACIN]
MIC (Bacillus subtilis [2]): 32 µg/mL (≈ 100 µM) | MIC (Pseudomonas aeruginosa): 8 µg/mL (≈ 25.1 µM) | MIC (Escherichia coli [4]): 16 µg/mL (≈ 50.1 µM) | MIC (Enterococcus faecalis): 8 µg/mL (≈ 25.1 µM) | MIC (Staphylococcus aureus): 8 µg/mL (≈ 25.1 µM) | MIC (Klebsiella pneumoniae [6]): 16 µg/mL (≈ 50.1 µM)

Nc1nc2c(ncn2-c2ccc(S(=O)(=O)N3CCCCC3)cc2Cl)c(=O)[nH]1
MIC (Aspergillus flavus [1]): 64 µg/mL (≈ 157 µM) | MIC (Bacillus subtilis [2]): 32 µg/mL (≈ 78.3 µM) | MIC (Aspergillus niger [3]): 64 µg/mL (≈ 157 µM) | MIC (Pseudomonas aeruginosa): 8 µg/mL (≈ 19.6 µM) | MIC (Escherichia coli [4]): 16 µg/mL (≈ 39.1 µM) | MIC (Candida albicans [5]): 64 µg/mL (≈ 157 µM) | MIC (Enterococcus faecalis): 4 µg/mL (≈ 9.78 µM) | MIC (Staphylococcus aureus): 4 µg/mL (≈ 9.78 µM) | MIC (Klebsiella pneumoniae [6]): 16 µg/mL (≈ 39.1 µM)

COc1cc(S(=O)(=O)N2CCC(C)CC2)ccc1-n1cnc2c(=O)[nH]c(N)nc21
MIC (Aspergillus flavus [1]): 16 µg/mL (≈ 38.2 µM) | MIC (Bacillus subtilis [2]): 16 µg/mL (≈ 38.2 µM) | MIC (Aspergillus niger [3]): 32 µg/mL (≈ 76.5 µM) | MIC (Pseudomonas aeruginosa): 64 µg/mL (≈ 153 µM) | MIC (Escherichia coli [4]): 16 µg/mL (≈ 38.2 µM) | MIC (Candida albicans [5]): 32 µg/mL (≈ 76.5 µM) | MIC (Enterococcus faecalis): 32 µg/mL (≈ 76.5 µM) | MIC (Staphylococcus aureus): 32 µg/mL (≈ 76.5 µM) | MIC (Klebsiella pneumoniae [6]): 32 µg/mL (≈ 76.5 µM)
